Assay results published in patent US11174260B2, “Compounds and methods for the treatment of parasitic diseases” (THE BROAD INSTITUTE, INC., priority 2017, dated 2021).

Assays:
P. falciparum Dd2 = assay: In vitro P. falciparum blood-stage culture and assay; type: cell-based; details: Plasmodium falciparum, DD2, 72 h, 72 h incubation, SYBR Green I readout, read-out: Pf Dd2
Procedure: Strains of P. falciparum (Dd2, 3D7, D6, K1, NF54, V1/3, HB3, 7G8, FCB and TM90C2B) were obtained from the Malaria Research and Reference Reagent Resource Center (MR4). P. falciparum isolates were maintained with O-positive human blood in an atmosphere of 93% N2, 4% CO2, 3% O2 at 37° C. in complete culturing medium (10.4 g/L RPMI 1640, 5.94 g/L HEPES, 5 g/L albumax II, 50 mg/L hypoxanthine, 2.1 g/L sodium bicarbonate, 10% human serum and 43 mg/L gentamicin). Parasites were cultured in medium until parasitaemia reached 3-8%. Parasitaemia was determined by checking at least 500 red blood cells from a Giemsa-stained blood smear. For the compound screening, a parasite dilution at 2.0% parasitaemia and 2.0% haematocrit was created with medium. 25 μl of medium was dispensed into 384-well black, clear-bottom plates and 100 nl of each compound in DMSO was transferred into assay plates along with the control compound (mefloquine). Next, 25 μl of the parasite suspension in medium was dispensed into the assay plates giving a final parasitaemia of 1% and a final haematocrit of 1%. The assay plates were incubated for 72 h at 37° C. 10 μl of detection reagent consisting of 10×SYBR Green I (Invitrogen; supplied in 10,000× concentration) in lysis buffer (20 mM Tris-HCl, 5 mM EDTA, 0.16% (w/v) Saponin, 1.6% (v/v) Triton X-100) was dispensed into the assay plates. For optimal staining, the assay plates were left at room temperature for 24 h in the dark. The assay plates were read with 505 dichroic mirrors with 485 nm excitation and 530 nm emission settings in an Envision (PerkinElmer).

C. parvum = C. parvum in vitro EC50 assay; type: cell-based; details: Cryptosporidium parvum; C. parvum oocysts in HCT-8 cells
Procedure: Human ileocecal adenocarcinoma (HCT-8) cells were obtained from ATCC and maintained in T-75 tissue culture flasks with RPMI 1640 medium with HEPES, sodium pyruvate (1 mM), and L-glutamine (ATCC) supplemented with 10% horse serum (ATCC) and 120 U/ml penicillin and 120 μg/ml streptomycin. Cells were plated into 384-well, tissue culture-treated, black-walled, clearbottom microwell plates (BD Falcon) at a density of 8,850 cells/well and allowed to grow to confluence. They were then inoculated with 5.5×10^3 primed C. parvum oocysts (Bunchgrass Farms, Deary, Id.) suspended in inoculation medium (RPMI 1640 without horse serum). Oocysts were primed for excystation by following a previously described protocol (J. Eukaryot. Microbiol. 46:56S-57S). Briefly, oocysts were treated for 10 min with 10 mM HCl at 37° C., centrifuged, and treated with a 2 mM solution of sodium taurocholate (Sigma-Aldrich) in phosphate-buffered saline (PBS) with Ca^2+ and Mg^2+. The suspension was incubated for 10 min at 16° C. and then diluted in inoculation medium and added to each well. Infected cells were incubated at 37° C. for 3 h, at which point an equal volume of growth medium containing 20% horse serum (total serum concentration of 10%). Compounds were diluted and assayed at fixed doses of 0.12, 0.37, 1.1, 3.3, and 10 μM (each concentration, n=14) for the generation of EC50 curves. In the case of final EC50 curves, three wells were left uninfected but treated with each of the corresponding concentrations of the compound to assess for background staining. All curves were generated using the log[inhibitor] versus response_variable slope equation in GraphPad Prism (equation 3), with the bottom constraint set equal to 0.

`COc1ccc(NC(=O)N2C[C@H](O)[C@H](O)CN3[C@H](CN(C)C)[C@H](c4ccc(C#Cc5ccccc5)cc4)[C@@H]3C2)cc1` [Example E6, (3R,4S,8R,9S,10S)-10-((dimethylamino)methyl)-3,4-dihydroxy-N-(4-methoxyphenyl)-9-(4-(phenylethynyl)phenyl)-1,6-diazabicyclo[6.2.0]decane-6-carboxamide] was tested, and the EC50 (P. falciparum Dd2) was under 0.05 µM and the EC50 (C. parvum) was 0.095 µM.

For `COc1ccc(NC(=O)N2CCC(CN(C)C)CN3[C@H](CO)[C@H](c4ccc(C#Cc5ccccc5)cc4)[C@@H]3C2)cc1` (stereo partly drawn) [Example E27, (8R,9R,10S)-3-[(dimethylamino)methyl]-10-(hydroxymethyl)-N-(4-methoxyphenyl)-9-[4-(2-phenylethynyl)phenyl]-1,6-diazabicyclo[6.2.0]decane-6-carboxamide], the EC50 (P. falciparum Dd2) was under 0.05 µM and the EC50 (C. parvum) was 0.134 µM.

`COc1ccc(NC(=O)N2C[C@@H](O)[C@@H](O)CN3C[C@H](c4ccc(C#Cc5ccccc5)cc4)[C@@H]3C2)cc1` [Example E36, (3S,4R,8R,9S)-3,4-dihydroxy-N-(4-methoxyphenyl)-9-[4-(2-phenylethynyl)phenyl]-1,6-diazabicyclo[6.2.0]decane-6-carboxamide] gave an EC50 (P. falciparum Dd2) of 0.05 to 0.25 µM and an EC50 (C. parvum) of 0.006 µM.

In the case of `COc1ccc(NC(=O)N2CCC(CO)CN3[C@H](CN(C)C)[C@H](c4ccc(C#Cc5ccccc5)cc4)[C@@H]3C2)cc1` (stereo partly drawn) [Example E26, (8R,9S,10S)-10-[(dimethylamino)methyl]-3-(hydroxymethyl)-N-(4-methoxyphenyl)-9-[4-(2-phenylethynyl)phenyl]-1,6-diazabicyclo[6.2.0]decane-6-carboxamide], the EC50 (P. falciparum Dd2) is reported as under 0.05 µM and the EC50 (C. parvum) is reported as 0.098 µM.

Work on `COc1ccc(NC(=O)N2C/C=C\CN3[C@H](CN(C)C)[C@H](c4ccc(C#Cc5ccccc5)cc4)[C@@H]3C2)cc1` [Example E4, (3Z,8R,9S,10S)-10-[(dimethylamino)methyl]-N-(4-methoxyphenyl)-9-[4-(2-phenylethynyl)phenyl]-1,6-diazabicyclo[6.2.0]dec-3-ene-6-carboxamide] yielded an EC50 (P. falciparum Dd2) of under 0.05 µM and an EC50 (C. parvum) of 0.068 µM.

For `COc1ccc(NC(=O)N2CC[C@H](O)CN3[C@H](CN(C)C)[C@H](c4ccc(C#Cc5ccccc5)cc4)[C@@H]3C2)cc1` [Example E15, (3S,8R,9S,10S)-10-[(dimethylamino)methyl]-3-hydroxy-N-(4-methoxyphenyl)-9-[4-(2-phenylethynyl)phenyl]-1,6-diazabicyclo[6.2.0]decane-6-carboxamide], the EC50 (P. falciparum Dd2) was under 0.05 µM and the EC50 (C. parvum) was 0.033 µM.
